Measurements as given in ChEMBL document CHEMBL1139134, “Synthesis and cytotoxic activity of 17-carboxylic acid modified 23-hydroxy betulinic acid ester derivatives” (Bioorg Med Chem Lett, 2007).
pIC50: −log10 of the molar value.

Tests used:
B16 [1] = assay: Cytotoxicity against mouse B16 cells by MTT assay; format: functional, cell-based
[2] = Cytotoxicity against human SF763 cells by MTT assay; format: functional, cell-based
Bel-7402 = assay: Cytotoxicity against human BEL-7402 cells by MTT assay; format: functional, cell-based
C6 = assay: Cytotoxicity against […] by MTT assay
A549 = assay: Cytotoxicity against human A549 cells by MTT assay; format: functional, cell-based
H22 [3] = assay: Antitumor activity in H22 cells xenografted ICR mouse assessed as tumor growth inhibition at 30 mg/kg, iv after 4 days; conditions: 96 h, read-out: Inhibition
B16 [4] = assay: Antitumor activity in B16 cells xenografted ICR mouse assessed as tumor weight at 25 mg/kg, iv after 11 days; format: functional
B16 [5] = assay: Antitumor activity in B16 cells xenografted ICR mouse assessed as tumor growth inhibition at 25 mg/kg, iv after 11 days; format: functional; conditions: B16, 264 h
H22 [6] = assay: Antitumor activity in H22 cells xenografted ICR mouse assessed as tumor growth inhibition at 20 mg/kg, ip after 4 days; format: functional; conditions: 96 h, route intraperitoneal
H22 [7] = assay: Antitumor activity in H22 cells xenografted ICR mouse assessed as tumor weight at 20 mg/kg, ip after 4 days; format: functional; conditions: route intraperitoneal
B16 [8] = assay: Antitumor activity in B16 cells xenografted ICR mouse assessed as tumor weight at 20 mg/kg, ip after 11 days; format: functional; conditions: route intraperitoneal
B16 [9] = assay: Antitumor activity in B16 cells xenografted ICR mouse assessed as tumor growth inhibition at 20 mg/kg, ip after 11 days; format: functional; conditions: 264 h, route intraperitoneal

## C=C(C)[C@@H]1CC[C@]2(C(=O)O)CC[C@]3(C)[C@H](CC[C@@H]4[C@@]5(C)CC[C@H](O)C(C)(C)[C@@H]5CC[C@]43C)[C@@H]12 [BETULINIC ACID]
B16 [1]
  pIC50: 4.27
[2]
  pIC50: 4.04
Bel-7402
  pIC50: 4.36
C6
  pIC50: 4.04
A549
  pIC50: 4.01

## O=P1(N(CCCl)CCCl)NCCCO1 (configuration not stated) [CYCLOPHOSPHAMIDE ANHYDROUS]
H22 [3]
  inhibition in vivo at 30 mg/kg: 56.3%

## O=c1[nH]cc(F)c(=O)[nH]1 [FLUOROURACIL]
B16 [4]
  Activity: 0.56 g
B16 [5]
  inhibition in vivo at 25 mg/kg: 72.4%

## C=C(C)[C@@H]1CC[C@]2(C(=O)OCC#CC)CC[C@]3(C)[C@H](CC[C@@H]4[C@@]5(C)CC[C@H](O)[C@@](C)(CO)[C@@H]5CC[C@]43C)[C@@H]12
B16 [1]
  pIC50: 4.20
[2]
  pIC50: 4.19
Bel-7402
  pIC50: 4.28
C6
  pIC50: 4.12
A549
  pIC50: 4.09

## C=C(C)[C@@H]1CC[C@]2(C(=O)O)CC[C@]3(C)[C@H](CC[C@@H]4[C@@]5(C)CC[C@H](O)[C@@](C)(CO)[C@@H]5CC[C@]43C)[C@@H]12
B16 [1]
  pIC50: 4.08
[2]
  pIC50: 3.98
H22 [6]
  inhibition in vivo at 20 mg/kg: 10.1%
H22 [7]
  Activity: 1.42 g
Bel-7402
  pIC50: 4.01
B16 [8]
  Activity: 1.76 g
C6
  pIC50: 4.00
A549
  pIC50: 4.06
B16 [9]
  inhibition in vivo at 20 mg/kg: 13.3%
